Experiments:
[1] = system: HBV quasi-species of patient sample N° 5; experiment: High throughput phenotyping assay: patient sample N° 5; type: cell-based, hepatitis B virus; settings: for IC50: Hepatitis B virus, 96 h, sample N° 5, D0 3TC, naïve, INNO LiPA wt, 4 days treatment; for Increase in resistance: sample N° 5, IC50 compared with referent virus
Protocol: (§1) The DNA from 1 ml of serum was extracted using the QIAamp Ultrasens Virus kit (Qiagen), and was taken up in 60 μl of water.
(§2) An amplification of the whole genomes by the method of the invention including the Nar I site was carried out and the amplicons obtained were purified by means of a silica column (Qiagen kit, Qiaquick purification kit).
(§3) The amplicons were then digested with the Nar I enzyme and purified by the same method as above.
(§4) These amplicons were transfected, in a culture format comprising a 25 cm^2 flask seeded the day before at a density of 5.2×10^4 cells/cm^2, with 200 to 400 ng of amplicon/cm^2.
(§5) After 60 hours, the cells were trypsinized and then treated with DNAse. After trypsinization, the cells were taken up in culture medium supplemented 50/50 with the two-times concentrated DNAse buffer (50 mM Tris, 1 mM CaCl2, 5 mM MgCl2, pH 8, 400 μg/ml of DNAse I) containing DNAse I, and incubated for 45 min at 37°. After pelleting, the cells were taken up in culture medium and distributed into 96-well culture plates coated (BioCoat) with collagen at a density of 6×10^4 cells/cm^2 in a volume corresponding to half the final volume used for the treatment with the drugs to be tested. This volume was completed with the 2-times concentration range of the drugs studied (Lamivudine and Adefovir)
(§6) The ranges used were from 100 to 0.01 μM for Lamivudine and from 100 to 6.25 μM for Adefovir. These cultures were treated with these dilutions for 4 days.
(§7) At the end of these 4 days of treatment, the viral DNA was extracted.
(§8) This step was carried out after washing the cells with PBS and adding the extraction buffer, i.e. 50 μl per 30 mm^2 (96-well format) (25 mM Tris, 0.5 mM CaCl2, 2.5 mM MgCl2, pH 8, 0.4 mg/ml DNAse, 0.4 mg/ml RNAse, 1% NP40). The lysis lasted one hour at 37° C. with agitation on a Heidolph Titramax 1000 plate mixer at a rotation rate of about 1050 rpm.
(§9) After this step of lysis and of digestion with DNAse and RNAse, the viral DNA produced during the culturing remains protected in the viral capsids. […]
(§10) This denaturation step was then stopped by adding a neutralizing buffer, 15 μl of 1M Tris at pH 7, and the solution thus obtained was subjected to a dilution before quantification by real time PCR. […]
(§11) The viral DNA extracted was then quantified by means of real time PCR quantification method.
(§12) This HBV production quantification step can be directly carried out after the preceding step, without any need to purify or concentrate the cell lysates to be assayed. […] (quantification step), and a final extension of one minute at 63° C. […]
(§13) For each plate assayed, a standard curve of 10^6 to 10^2 HBV copies/reaction was quantified in parallel. […]

[2] = system: HBV quasi-species of patient sample N° 3; experiment: High throughput phenotyping assay: patient sample N° 3; type: cell-based, hepatitis B virus; settings: for IC50: Hepatitis B virus, 96 h, sample N° 3, D0 3TC, naïve, INNO LiPA wt, 4 days treatment; for Increase in resistance: sample N° 3, IC50 compared with referent virus
Protocol: as §1, §2, §3, §4, §5, §6, §7, §8, §9, §10, §11, §12, §13

[3] = system: HBV quasi-species of patient sample N° 19; experiment: High throughput phenotyping assay: patient sample N° 19; type: cell-based, hepatitis B virus; settings: for IC50: Hepatitis B virus, 96 h, sample N° 19, M24 3TC M3 PMEA, INNO LiPA L180M A181V, 4 days treatment; for Increase in resistance: IC50 compared with referent virus
Protocol: as §1, §2, §3, §4, §5, §6, §7, §8
After this step of lysis and of digestion with DNAse and RNAse, the viral DNA produced during the culturing remains protected in the viral capsids. This DNA was then extracted by denaturation of the viral capsids by means of alkalinization of the extraction buffer by addition of NaOH, i.e. 15 μl of a 0.4M solution per 50 μl of extraction buffer. This denaturation was carried out at 37° C. for 30 min under the same agitation conditions as during the treatment with DNAse, i.e. on a Heidolph Titramax 1000 plate mixer at a rotation rate of about 1050 rpm.
This denaturation step was then stopped by adding a neutralizing buffer, 15 μl of 1M Tris at pH 7, and the solution thus obtained was subjected to a dilution before quantification by real time PCR. The final dilution is ⅕ relative to the initial volume of extraction buffer, i.e. an addition of 170 μl of water in a 96-well format.
as §11
This HBV production quantification step can be directly carried out after the preceding step, without any need to purify or concentrate the cell lysates to be assayed. The real time PCR can be carried out in the same format as the culture format, i.e. a 96-well format on the Biorad MyiQ device, using the real time kit and the consumables suitable for this device, i.e. the iQ™ Sybr® Green Supermix two-times concentrated PCR mix. […] (quantification step), and a final extension of one minute at 63° C. […]
as §13

[4] = system: HBV quasi-species of patient sample N° 21; experiment: High throughput phenotyping assay: patient sample N° 21; type: cell-based, hepatitis B virus; settings: for IC50: Hepatitis B virus, 96 h, sample N° 21, D0 3TC, naïve, INNO LiPA wt, 4 days treatment; for Increase in resistance: sample N° 21, IC50 compared with referent virus
Protocol: as §1, §2, §3, §4, §5, §6, §7, §8, §9, §10, §11, §12, §13

[5] = system: HBV quasi-species of patient sample N° 17; experiment: High throughput phenotyping assay: patient sample N° 17; type: cell-based, hepatitis B virus; settings: for IC50: Hepatitis B virus, 96 h, sample N° 17, M24 3TC, INNO LiPA L180M ± M204I, 4 days treatment; for Increase in resistance: sample N° 17, IC50 compared with referent virus
Protocol: as §1, §2, §3, §4, §5, §6, §7, §8, §9, §10, §11, §12, §13

[6] = system: HBV quasi-species of patient sample N° 7; experiment: High throughput phenotyping assay: patient sample N° 7; type: cell-based, hepatitis B virus; settings: for IC50: Hepatitis B virus, 96 h, sample N° 7, M18 3TC, INNO LiPA L80V M204I, 4 days treatment; for Increase in resistance: sample N° 7, IC50 compared with referent virus
Protocol: as §1, §2, §3, §4, §5, §6, §7, §8, §9, §10, §11, §12, §13

[7] = system: reference HBV, genotype D, ayw serotype, wild-type phenotype; experiment: High throughput phenotyping assay, HBV genomic amplicon transfected, viral DNA by real time PCR: referent virus; type: cell-based; settings: Hepatitis B virus, 96 h, Referent virus (genotype D, ayw, without known mutation), 4 days treatment
Protocol: In addition to the 6 samples analysed, a control was included. This control is a genome of the reference HBV, genotype D, having an ayw serotype and a wild-type phenotype for all the drugs studied. This genome was amplified by the same technique as the samples analysed using a plasmid.
as §2, §3, §4
After 60 hours, the cells were trypsinized and then treated with DNAse. […]
as §10, §11, §12

HBV = settings: cited from earlier work

Compound	IC50 [1] [µM]	Increase in resistance [1]	IC50 [2] [µM]	Increase in resistance [2]	IC50 [3] [µM]	in vitro phenotype ([3]; sample N° 19)	Increase in resistance ([3]; sample N° 19)	IC50 [4] [µM]	Increase in resistance [4]	IC50 [5] [µM]	Increase in resistance [5]	IC50 [6] [µM]	Increase in resistance [6]	IC50 [7] [µM]	chronic carriers that it is possible to treat (HBV)
Nc1ncnc2c1ncn2CCOCP(=O)(O)O [Adefovir]	8	1	9	1.1	52	doubly resistant	6.5	14.5	1.8	14	1.75	13.5	1.7	8	
Nc1ccn([C@@H]2CS[C@H](CO)O2)c(=O)n1 [Lamivudine]	0.2	2	0.7	7	40		400	0.14	1.4	> 100	>1000	> 100	>1000	0.1	
alpha-interferon															approximately 40%

From patent US20060194217A1, “Method of genotyping and phenotyping hepatitis B viruses resistant to antiviral molecules” (priority 2005, published 2006)
